The supplement of paper PMC10011410

Columns and labels:
U-2 OS [1] = experiment: cell painting activity score (Mahalanobis distance from DMSO wells); higher = stronger morphological phenotype; conditions: 24 h
Experimental: (§1)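 Cell painting in U-2 OS cells (384-well, about 1,500 cells per well), compound exposure 24 h, usually six 2-fold concentrations from 20 to 0.625 uM (some compounds higher or lower). Relative cell count is the cell number per well relative to DMSO wells. Activity score is the Mahalanobis distance of the morphological profile from DMSO control wells. Mean of four technical replicate plates.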

U-2 OS [2] = experiment: relative cell count vs DMSO (cell painting) (fraction of DMSO control); higher = more cells remaining (less cytotoxic); conditions: 24 h
Experimental: as §1

U-2 OS [3] = experiment: AUC of culture confluence over time (live-cell imaging) (AUC (confluence % x time)); higher = more confluent culture (less growth inhibition)
Experimental: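 Live-cell Incucyte imaging of U-2 OS cells in F-12K medium. Compounds were tested mostly at 5, 10 and 20 uM, and cells were imaged every 4 h for up to 60 h. Value is the area under the curve of phase-contrast confluence over time.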

Compound	cell painting activity score (U-2 OS [1]; 0.625 µM)	cell painting activity score (U-2 OS [1]; 1.25 µM)	cell painting activity score (U-2 OS [1]; 2.5 µM)	cell painting activity score (U-2 OS [1]; 5 µM)	cell painting activity score (U-2 OS [1]; 10 µM)	cell painting activity score (U-2 OS [1]; 20 µM)	relative cell count (U-2 OS [2]; 0.625 µM)	relative cell count (U-2 OS [2]; 1.25 µM)	relative cell count (U-2 OS [2]; 2.5 µM)	relative cell count (U-2 OS [2]; 5 µM)	relative cell count (U-2 OS [2]; 10 µM)	relative cell count (U-2 OS [2]; 20 µM)	AUC of culture confluence over time (U-2 OS [3]; 5 µM)	AUC of culture confluence over time (U-2 OS [3]; 10 µM)	AUC of culture confluence over time (U-2 OS [3]; 20 µM)	cell painting activity score (U-2 OS [1]; 0.2062 µM)	cell painting activity score (U-2 OS [1]; 0.4124 µM)	cell painting activity score (U-2 OS [1]; 0.825 µM)	cell painting activity score (U-2 OS [1]; 1.65 µM)	cell painting activity score (U-2 OS [1]; 3.3 µM)	cell painting activity score (U-2 OS [1]; 6.6 µM)	relative cell count (U-2 OS [2]; 0.2062 µM)	relative cell count (U-2 OS [2]; 0.4124 µM)	relative cell count (U-2 OS [2]; 0.825 µM)	relative cell count (U-2 OS [2]; 1.65 µM)	relative cell count (U-2 OS [2]; 3.3 µM)	relative cell count (U-2 OS [2]; 6.6 µM)
CCC(=O)CCCCC[C@@H]1NC(=O)[C@H]2CCCCN2C(=O)[C@H]([C@@H](C)CC)NC(=O)[C@H](Cc2cn(OC)c3ccccc23)NC1=O	16.3	16	16.4	16	13.2	13.1	0.946	0.821	0.617	0.59	0.617	0.553	22.3	21.7	19.6												
Nc1nc(Cl)nc2c1ncn2[C@H]1C[C@H](O)[C@@H](CO)O1	12.6	13.3	13.6	14	14.8	15.2	0.638	0.588	0.583	0.555	0.55	0.539	30.2	34.5	33.3												
C[C@@H]1C[C@@H]([C@H](O)CC2CC(=O)NC(=O)C2)C(=O)[C@@H](C)C1	9.38	9.5	11.4	11.5	12.8	14.2	0.783	0.651	0.576	0.534	0.475	0.479	21	19.4	20.1												
NC(=O)c1ccc(I)c([N+](=O)[O-])c1	3.13	3.07	2.86	3.68	3.09	3.55	1.01	1.07	1.05	1.04	1.06	1.07	56.5	53.5	50.1												
CC1OC2=C(C(=O)C(=O)c3ccccc32)C1(C)C (configuration not stated)	15	17.1	20.7	25.1	33.8	34.2	0.845	0.561	0.299	0.207	0.14	0.134	19.5	18.5	16												
CC1=C2C(=CO[C@H](C)[C@H]2C)C(=O)C(C(=O)O)=C1O	4.49	5.94	4.77	8.7	6.33	10.3	0.985	0.942	0.951	0.893	0.935	0.793	48.9	45.6	42												
CO[C@@H]1[C@H](N(C)C(=O)c2ccccc2)C[C@H]2O[C@]1(C)n1c3ccccc3c3c4c(c5c6ccccc6n2c5c31)C(=O)NC4	13.9	15.2	19.8	22.9	23.7	24.4	1.02	0.757	0.456	0.362	0.347	0.354															
CC(C)C[C@@H](C=O)NC(=O)[C@@H](CC(C)C)NC(=O)[C@H](CC(C)C)NC(=O)OCc1ccccc1	4.19	4.34	5.35	5.4	3.89	7.43	1	0.959	0.944	0.993	0.986	0.909															
[Cl][Pt+2][Cl].[NH2-].[NH2-]																5.52	4.94	3.93	5.77	3.26	9.14	0.954	0.964	0.902	0.701	0.937	0.666
O=C(Nc1ccc([N+](=O)[O-])cc1Cl)c1cc(Cl)ccc1O	5.54	8.61	10.3	16	17.7	14.8	1.13	1.05	1.06	0.922	0.808	0.753															
CC(C)(C)c1cc(O)ccc1O	4.14	4.2	5.45	5.28	4.94	7.97	0.908	0.958	0.948	0.913	0.945	0.949															
Oc1ccc(/C=C/c2cc(O)cc(O)c2)cc1													49	46.4	42.5												
COc1c(O)c2c(=O)cc3c4c5c(cc(=O)c6c(O)c(OC)c(CC(C)O)c(c(c1CC(C)O)c24)c65)OCO3 (configuration not stated)	4.68	7.7	10.5	13	12	13.9	0.971	0.918	0.859	0.682	0.499	0.366															
Cc1ccc(S(=O)(=O)/C=C/C#N)cc1	10.4	12.9	16.7	18.3	21	23.7	0.923	0.942	0.678	0.485	0.231	0.286															
O=C1Cc2c([nH]c3ccc(Br)cc23)-c2ccccc2N1	7.76	10.8	12.7	13.7	14.7	13.6	0.977	0.959	0.911	0.835	0.557	0.164															
N#CC(C#N)=NNc1cccc(Cl)c1	5.76	5.02	7.58	9.31	13.4	16.2	0.975	0.949	0.98	0.897	0.711	0.491															
CCCCCCCCCCCCCCCCCCOP(=O)([O-])OC1CC[N+](C)(C)CC1	3.72	3.21	3.03	3.98	3.76	4.51	1.02	1.03	1.11	1.05	1.05	1.02															
Oc1ccc(/C=C\c2cc(O)cc(O)c2)cc1													42.1	46.9	39.8												
COC1=C(OC)C(=O)c2ccccc2C1=O	7.97	8.63	10.7	18.9	21.2	24.7	0.99	0.895	0.81	0.489	0.46	0.149															
C=CCNC1=C2C[C@@H](C)C[C@H](OC)[C@H](O)[C@@H](C)/C=C(\C)[C@H](OC(N)=O)[C@@H](OC)/C=C\C=C(/C)C(=O)NC(=CC1=O)C2=O	16.6	19.1	19.1	19.1	19.2	18.3	0.814	0.697	0.61	0.586	0.589	0.549															
O=C1C=C(Cl)C(=O)c2ccccc21	7.9	18.1	19.4	17.9	22.2	25.4	0.745	0.492	0.216	0.29	0.169	0.267															
COS(=O)(=O)O.C[n+]1c2ccccc2nc2ccccc21	4.8	5.06	9.91	14.3	19.6	23.1	0.956	0.92	0.807	0.265	0.282	0.0549															
CCN(CC)CCNC(=O)c1c(C)[nH]c(/C=C2\C(=O)Nc3ccc(F)cc32)c1C	11.2	11.5	11.3	12.4	14.5	25.1	0.983	0.945	0.983	0.917	0.831	0.503															
CCc1c2c(nc3ccc(O)cc13)-c1cc3c(c(=O)n1C2)COC(=O)[C@]3(O)CC	12	12.3	12.7	12.3	12.1	14.9	0.523	0.525	0.515	0.467	0.446	0.482															
COc1ccc2cc1Oc1ccc(cc1)C[C@H]1c3cc(c(OC)cc3CCN1C)Oc1c(OC)c(OC)cc3c1[C@H](C2)N(C)CC3	5.28	5.79	5.97	16.8	28.3	14.8	1.08	1.06	1.04	1.07	0.973	0.322															
C[C@H](CC[C@@]1(O)O[C@H]2C[C@H]3[C@@H]4CC=C5C[C@@H](O[C@@H]6O[C@H](CO)[C@@H](O[C@@H]7O[C@@H](C)[C@H](O)[C@@H](O)[C@H]7O)[C@H](O)[C@H]6O[C@@H]6O[C@@H](C)[C@H](O)[C@@H](O)[C@H]6O)CC[C@]5(C)[C@H]4CC[C@]3(C)[C@H]2[C@@H]1C)CO[C@@H]1O[C@H](CO)[C@@H](O)[C@H](O)[C@H]1O	14.9	14.4	15.1	16.6	21	22.7	0.811	0.808	0.734	0.502	0.0412	0.0114															
